This passage reports IC50 results from patent US20260217735A1, “HETEROCYCLES AND USES THEREOF” (Kumquat Biosciences Inc., priority 2023, published 2026).

For test [1], the target named is T1, KRAS G12D (Homo sapiens, UniProt P01116, G12D).
T1 construct: made in house; host or cells: E. coli, e.g. BL21 (DE3)
The experiment in a line: HTRF assay, KRAS G12D interaction with SOS1. The settings on record: bins <500 nM / 500 nM to 1000 nM, read-out: Inhibition of KRAS G12D (IC50). The format is biochemical. (TR-FRET usually uses a lanthanide donor and a delayed reading to cut background.)

The target of test [2] is T2, KRAS WT (Homo sapiens, UniProt P01116).
T2 construct: made in house; host or cells: E. coli, e.g. BL21 (DE3)
Briefly: HTRF assay, wildtype KRAS interaction with SOS1. The format is biochemical. The settings on record: bins <500 nM / 500 nM to 1000 nM, read-out: Inhibition of KRAS WT (IC50).

Test [3] deals with T3, KRAS G12V (Homo sapiens, UniProt P01116, G12V).
T3 construct: made in house; host or cells: E. coli, e.g. BL21 (DE3)
The experiment in a line: HTRF assay, KRAS G12V interaction with SOS1. The format is biochemical. The settings on record: bins <500 nM / 500 nM to 1000 nM, read-out: Inhibition of KRAS G12V (IC50).

Test [4] addresses T4, KRAS G12S (Homo sapiens, UniProt P01116, G12S).
T4 construct: made in house; host or cells: E. coli, e.g. BL21 (DE3)
Briefly: HTRF assay, KRAS G12S interaction with SOS1. The settings on record: bins <500 nM / 500 nM to 1000 nM, read-out: Inhibition of KRAS G12S (IC50). The format is biochemical.

For test [5], the system named is MiaPaca2 cells. The experiment in a line: Ras cellular assay, growth of cells with K-Ras G12C mutation. The format is cell-based. The settings on record: Homo sapiens, MIA PaCa-2; cell proliferation assay; bins ≤500 nM / >500 nM; read-out: Inhibition of MiaPaca2 Cells (IC50). In outline: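 Anchorage-independent growth: G12C-mutant MIA PaCa-2 plated in soft agar, time-zero plate read the next day when compound was dosed (final DMSO 0.3%). After growth to day 10, MTS-type absorbance at 490/660 nm relative to time zero gave IC50 via four-parameter fitting.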

T4 sequence (P01116 1-188 isoform P01116-2 G12S): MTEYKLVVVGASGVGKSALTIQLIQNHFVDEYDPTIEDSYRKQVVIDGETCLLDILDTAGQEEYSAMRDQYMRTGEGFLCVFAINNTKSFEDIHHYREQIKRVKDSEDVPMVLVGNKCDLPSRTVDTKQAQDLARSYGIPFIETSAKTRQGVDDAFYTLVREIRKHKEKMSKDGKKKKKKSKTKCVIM
T3 sequence (P01116 1-188 isoform P01116-2 G12V): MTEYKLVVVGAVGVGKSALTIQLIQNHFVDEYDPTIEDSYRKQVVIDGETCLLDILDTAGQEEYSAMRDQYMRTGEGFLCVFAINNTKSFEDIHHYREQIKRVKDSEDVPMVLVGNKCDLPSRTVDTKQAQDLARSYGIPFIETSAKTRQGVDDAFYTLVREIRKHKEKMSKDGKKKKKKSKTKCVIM
T2 sequence (P01116 1-188 isoform P01116-2): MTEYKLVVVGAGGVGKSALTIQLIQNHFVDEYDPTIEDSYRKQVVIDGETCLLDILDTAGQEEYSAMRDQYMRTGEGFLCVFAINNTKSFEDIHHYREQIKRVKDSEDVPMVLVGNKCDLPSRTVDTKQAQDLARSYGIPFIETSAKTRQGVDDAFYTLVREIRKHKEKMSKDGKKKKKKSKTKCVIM
T1 sequence (P01116 1-188 isoform P01116-2 G12D): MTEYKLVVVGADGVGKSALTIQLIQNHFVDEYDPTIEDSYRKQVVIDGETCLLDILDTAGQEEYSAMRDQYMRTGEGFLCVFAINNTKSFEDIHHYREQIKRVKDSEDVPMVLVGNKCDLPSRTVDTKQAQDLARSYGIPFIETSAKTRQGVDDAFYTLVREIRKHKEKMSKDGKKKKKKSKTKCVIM

By IC50 is commonly meant the concentration that gives 50% inhibition. As to `CCN(c1nc(OC[C@@]23CCCN2C[C@H](F)C3)nc2c(F)c(-c3ccc(F)c4sc(N)c(C#N)c34)c(C(F)(F)F)cc12)[C@@H]1CCN(C(=O)n2cc(C)nc2Cl)[C@@H]1C` [Compound 162, 2-amino-4-(4-(((2R,3R)-1-(2-chloro-4-methyl-1H-imidazole-1-carbonyl)-2-methylpyrrolidin-3-yl)(ethyl)amino)-8-fluoro-2-(((2R,7aS)-2-fluorotetrahydro-1H-pyrrolizin-7a(5H)-yl)methoxy)-6-(trifluoromethyl)quinazolin-7-yl)-7-fluorobenzo[b]thiophene-3-carbonitrile], the IC50 in test [1] was below 500 nM; in test [2] it was below 500 nM; in test [3], below 500 nM; in test [4], below 500 nM; in test [5], at most 500 nM.
As for `CCN(c1nc(OC[C@@]23CCCN2C[C@H](F)C3)nc2c(F)c(-c3ccc(F)c4sc(N)c(C#N)c34)c(Cl)cc12)[C@@H]1CCN(C(=O)n2ccnc2C)[C@@H]1C` [Compound 163, 2-amino-4-(6-chloro-4-(ethyl((2R,3R)-2-methyl-1-(2-methyl-1H-imidazole-1-carbonyl)pyrrolidin-3-yl)amino)-8-fluoro-2-(((2R,7aS)-2-fluorotetrahydro-1H-pyrrolizin-7a(5H)-yl)methoxy)quinazolin-7-yl)-7-fluorobenzo[b]thiophene-3-carbonitrile], the IC50 in test [1] was below 500 nM; in test [2], below 500 nM; in test [3] it was below 500 nM; in test [4], below 500 nM; in test [5], at most 500 nM.
`Cc1cn(C(=O)N2CC3(CCCCN(c4nc(OC[C@@]56CCCN5C[C@H](F)C6)nc5c(F)c(-c6ccc(F)c7sc(N)c(C#N)c67)c(Cl)cc45)C3)C2)cn1` [Compound 164, 2-amino-4-(6-chloro-8-fluoro-2-(((2R,7aS)-2-fluorotetrahydro-1H-pyrrolizin-7a(5H)-yl)methoxy)-4-(2-(4-methyl-1H-imidazole-1-carbonyl)-2,6-diazaspiro[3.6]decan-6-yl)quinazolin-7-yl)-7-fluorobenzo[b]thiophene-3-carbonitrile]: the concentration for half-maximal inhibition (IC50) in test [1] was below 500 nM; in test [2] it was below 500 nM; in test [3], below 500 nM; in test [4], below 500 nM; in test [5] it was at most 500 nM.
In the case of `Cc1nc(C#N)cn1C(=O)N1C[C@]2(CCCCN(c3nc(OC[C@@]45CCCN4C[C@H](F)C5)nc4c(F)c(-c5ccc(F)c6sc(N)c(C#N)c56)c(Cl)cc34)C2)[C@H]1C` [Compound 165, 1-((1R,4R)-6-(7-(2-amino-3-cyano-7-fluorobenzo[b]thiophen-4-yl)-6-chloro-8-fluoro-2-(((2R,7aS)-2-fluorotetrahydro-1H-pyrrolizin-7a(5H)-yl)methoxy)quinazolin-4-yl)-1-methyl-2,6-diazaspiro[3.6]decane-2-carbonyl)-2-methyl-1H-imidazole-4-carbonitrile], the concentration for half-maximal inhibition (IC50) in test [1] is below 500 nM; in test [2], below 500 nM; in test [3] it was below 500 nM; in test [4], below 500 nM; in test [5] it was at most 500 nM.
As to `CC[C@@H]1[C@H](N(CC)c2nc(OC[C@@]34CCCN3C[C@H](F)C4)nc3c(F)c(-c4ccc(F)c5sc(N)c(C#N)c45)c(Cl)cc23)CCN1C(=O)n1cnc(F)n1` [Compound 168, 2-amino-4-(6-chloro-4-(ethyl((2R,3R)-2-ethyl-1-(3-fluoro-1H-1,2,4-triazole-1-carbonyl)pyrrolidin-3-yl)amino)-8-fluoro-2-(((2R,7aS)-2-fluorotetrahydro-1H-pyrrolizin-7a(5H)-yl)methoxy)quinazolin-7-yl)-7-fluorobenzo[b]thiophene-3-carbonitrile], the half-inhibitory concentration (IC50) in test [1] is below 500 nM; in test [2], below 500 nM; in test [3], below 500 nM; in test [4] it was below 500 nM; in test [5], at most 500 nM.
As to `CC(C)[C@@H]1[C@H](N(C)c2nc(OC[C@@]34CCCN3C[C@H](F)C4)nc3c(F)c(-c4ccc(F)c5sc(N)c(C#N)c45)c(Cl)cc23)CCN1C(=O)n1ccnc1` [Compound 169, 4-(4-(((2R,3R)-1-(1H-imidazole-1-carbonyl)-2-isopropylpyrrolidin-3-yl)(methyl)amino)-6-chloro-8-fluoro-2-(((2R,7aS)-2-fluorotetrahydro-1H-pyrrolizin-7a(5H)-yl)methoxy)quinazolin-7-yl)-2-amino-7-fluorobenzo[b]thiophene-3-carbonitrile], the concentration for half-maximal inhibition (IC50) in test [1] was below 500 nM; in test [2], below 500 nM; in test [3], below 500 nM; in test [4], below 500 nM; in test [5], at most 500 nM.
Take `CCN(c1nc(OC[C@@]23CCCN2C[C@H](F)C3)nc2c(F)c(-c3ccc(F)c4sc(N)c(C#N)c34)c(Cl)cc12)[C@@H]1CCN(C(=O)n2cnc(OC)c2)[C@@H]1C` [Compound 170, 2-amino-4-(6-chloro-4-(ethyl((2R,3R)-1-(4-methoxy-1H-imidazole-1-carbonyl)-2-methylpyrrolidin-3-yl)amino)-8-fluoro-2-(((2R,7aS)-2-fluorotetrahydro-1H-pyrrolizin-7a(5H)-yl)methoxy)quinazolin-7-yl)-7-fluorobenzo[b]thiophene-3-carbonitrile]: the IC50 is below 500 nM in test [1]; below 500 nM in test [2]; below 500 nM in test [3]; below 500 nM in test [4]; at most 500 nM in test [5].
As to `CCN(c1nc(OC[C@@]23CCCN2C[C@H](F)C3)nc2c(F)c(-c3ccc(F)c4sc(N)c(C#N)c34)c(C3CC3)cc12)[C@@H]1CCN(C(=O)n2ccnc2C)[C@@H]1C` [Compound 171, 2-amino-4-(6-cyclopropyl-4-(ethyl((2R,3R)-2-methyl-1-(2-methyl-1H-imidazole-1-carbonyl)pyrrolidin-3-yl)amino)-8-fluoro-2-(((2R,7aS)-2-fluorotetrahydro-1H-pyrrolizin-7a(5H)-yl)methoxy)quinazolin-7-yl)-7-fluorobenzo[b]thiophene-3-carbonitrile], the IC50 in test [1] was below 500 nM; in test [2] it was below 500 nM; in test [3], below 500 nM; in test [4], below 500 nM; in test [5], at most 500 nM.
For `C[C@@H]1[C@H](N(C)c2nc(OC[C@@]34CCCN3C[C@H](F)C4)nc3c(F)c(-c4ccc(F)c5sc(N)c(C#N)c45)c(Cl)cc23)CCN1C(=O)n1cccn1` [Compound 172, 2-amino-4-(6-chloro-8-fluoro-2-(((2R,7aS)-2-fluorotetrahydro-1H-pyrrolizin-7a(5H)-yl)methoxy)-4-(methyl((2R,3R)-2-methyl-1-(1H-pyrazole-1-carbonyl)pyrrolidin-3-yl)amino)quinazolin-7-yl)-7-fluorobenzo[b]thiophene-3-carbonitrile], the IC50 was below 500 nM in test [1]; below 500 nM in test [2]; below 500 nM in test [3]; below 500 nM in test [4]; at most 500 nM in test [5].
As for `CC[C@@H]1[C@H](N(CC)c2nc(OC[C@@]34CCCN3C[C@H](F)C4)nc3c(F)c(-c4ccc(F)c5sc(N)c(C#N)c45)c(Cl)cc23)CCN1C(=O)n1ccnc1` [Compound 173, 2-amino-4-(6-chloro-4-(ethyl((2R,3R)-2-ethyl-1-(1H-imidazole-1-carbonyl)pyrrolidin-3-yl)amino)-8-fluoro-2-(((2R,7aS)-2-fluorotetrahydro-1H-pyrrolizin-7a(5H)-yl)methoxy)quinazolin-7-yl)-7-fluorobenzo[b]thiophene-3-carbonitrile], the IC50 is below 500 nM in test [1]; below 500 nM in test [2]; below 500 nM in test [3]; below 500 nM in test [4]; at most 500 nM in test [5].
Regarding `Cc1ncn(C(=O)N2C[C@]3(CCCCN(c4nc(OC[C@@]56CCCN5C[C@H](F)C6)nc5c(F)c(-c6ccc(F)c7sc(N)c(C#N)c67)c(Cl)cc45)C3)[C@H]2C2(C)CC2)c1C` [Compound 174, 2-amino-4-(6-chloro-4-((1R,4R)-2-(4,5-dimethyl-1H-imidazole-1-carbonyl)-1-(1-methylcyclopropyl)-2,6-diazaspiro[3.6]decan-6-yl)-8-fluoro-2-(((2R,7aS)-2-fluorotetrahydro-1H-pyrrolizin-7a(5H)-yl)methoxy)quinazolin-7-yl)-7-fluorobenzo[b]thiophene-3-carbonitrile], the IC50 in test [1] is below 500 nM; in test [2], below 500 nM; in test [3] it was below 500 nM; in test [4], below 500 nM; in test [5], at most 500 nM.
For `CCN(c1nc(OC[C@@]23CCCN2C[C@H](F)C3)nc2c(F)c(-c3ccc(F)c4sc(N)c(C#N)c34)c(C3CC3)cc12)[C@@H]1CCN(C(=O)n2cnc(C)c2C)[C@@H]1C` [Compound 175, 2-amino-4-(6-cyclopropyl-4-(((2R,3R)-1-(4,5-dimethyl-1H-imidazole-1-carbonyl)-2-methylpyrrolidin-3-yl)(ethyl)amino)-8-fluoro-2-(((2R,7aS)-2-fluorotetrahydro-1H-pyrrolizin-7a(5H)-yl)methoxy)quinazolin-7-yl)-7-fluorobenzo[b]thiophene-3-carbonitrile], the half-inhibitory concentration (IC50) is below 500 nM in test [1]; below 500 nM in test [2]; below 500 nM in test [3]; below 500 nM in test [4]; at most 500 nM in test [5].
